The source made the active and inactive calls.
Legend:
[1] = biological target: T1, Neuronal acetylcholine receptor; alpha4/beta2 (Homo sapiens) (UniProt P17787+P43681); assay: Positive allosteric modulation at human alpha4beta2 nAChR expressed in HEK293 cells assessed as potentiation of 5-[(2R)-azetidin-2-ylmethoxy]-2-chloropyridine-induced calcium flux preincubated for 5 mins followed by agonist addition measured for 3 to 5 mins by FLIPR assay relative to control; format: cell-based; design: concentration or dose not given beside the values
[2] = biological target: T1, Neuronal acetylcholine receptor; alpha4/beta2 (Homo sapiens); assay: Positive allosteric modulation at human alpha4beta2 nAChR expressed in HEK293 cells assessed as potentiation of (3R)-1-pyridin-3-ylpyrrolidin-3-amine-induced calcium flux preincubated for 5 mins followed by agonist addition measured for 3 to 5 mins by FLIPR assay relative to control; format: cell-based; design: concentration or dose not given beside the values
Rattus norvegicus [3] = assay: Antinociceptive activity in Sprague-Dawley rat assessed as reversal of tight ligation of L5-L6 spinal nerves-induced mechanical allodynia by measuring paw withdrawal threshold at 500 umol/kg, ip measured after 30 mins; format: functional
[4] = biological target: T1, Neuronal acetylcholine receptor; alpha4/beta2 (Homo sapiens); assay: Positive allosteric modulation at human alpha4beta2 nAChR expressed in HEK293 cells assessed as potentiation of (1S,5S)-3-(3,6-diaza-bicyclo[3.2.0]hept-3-yl)-quinoline-induced calcium flux preincubated for 5 mins followed by agonist addition measured for 3 to 5 mins by FLIPR assay; format: cell-based
[5] = biological target: T1, Neuronal acetylcholine receptor; alpha4/beta2 (Homo sapiens); assay: Positive allosteric modulation at human alpha4beta2 nAChR expressed in HEK293 cells assessed as potentiation of varenicline-induced calcium flux preincubated for 5 mins followed by agonist addition measured for 3 to 5 mins by FLIPR assay; format: cell-based
[6] = biological target: T1, Neuronal acetylcholine receptor; alpha4/beta2 (Homo sapiens); assay: (§1) Positive allosteric modulation at human alpha4beta2 nAChR expressed in HEK293 cells assessed as potentiation of (3R)-1-pyridin-3-ylpyrrolidin-3-amine-induced calcium flux at 10 uM preincubated for 5 mins followed by agonist addition measured for 3 to 5 mins by FLIPR assay relative to control; format: cell-based
Rattus norvegicus [7] = assay: (§2) Potentiation of 5-[(2R)-Azetidin-2-yl methoxy]-2-chloropyridine-induced antinociceptive activity in Sprague-Dawley rat assessed as reversal of tight ligation of L5-L6 spinal nerves-mediated mechanical allodynia by measuring increase in paw withdrawal threshold at 3.5 umol/kg, ip administered prior to agonist treatment measured after 30 mins; format: functional, organism-based
[8] = biological target: T1, Neuronal acetylcholine receptor; alpha4/beta2 (Homo sapiens); assay: Positive allosteric modulation at human alpha4beta2 nAChR expressed in HEK293 cells assessed as potentiation of 2-methyl-3-(2-(S)-pyrrolidinylmethoxy)pyridine-induced calcium flux preincubated for 5 mins followed by agonist addition measured for 3 to 5 mins by FLIPR assay; format: cell-based
[9] = biological target: T1, Neuronal acetylcholine receptor; alpha4/beta2 (Homo sapiens); assay: Positive allosteric modulation at human alpha4beta2 nAChR expressed in HEK293 cells assessed as potentiation of ispronicline-induced calcium flux preincubated for 5 mins followed by agonist addition measured for 3 to 5 mins by FLIPR assay; format: cell-based
Rattus norvegicus [10] = assay: (§3) Potentiation of 30 umol/kg of (1S,5S)-3-(3,6-diaza-bicyclo[3.2.0]hept-3-yl)-quinoline-induced antinociceptive activity in Sprague-Dawley rat assessed as reversal of tight ligation of L5-L6 spinal nerves-mediated mechanical allodynia by measuring paw withdrawal threshold at 35 umol/kg, ip administered prior to agonist treatment measured after 30 mins; format: functional
[11] = Toxicity in ferret assessed as emesis at 3.5 umol/kg administered 30 mins prior to agonist treatment measured for 90 mins in presence of 5-[(2R)-Azetidin-2-yl methoxy]-2-chloropyridine; design: species or system Mustela putorius furo; conditions: in vivo, 1.5 h
Rattus norvegicus [12] = assay: as §2, with “measuring” for “measuring increase in”, “10 mg/kg,” for “3.5 umol/kg,”, “mins (reference value: 24%)” for “mins”; format: functional
[13] = Toxicity in ferret assessed as emesis at 3.5 umol/kg after 30 mins measured for 90 mins; design: species or system Mustela putorius furo; conditions: in vivo, 1.5 h
Rattus norvegicus [14] = assay: as §3, with “of 3” for “of 30”; format: functional
[15] = biological target: T1, Neuronal acetylcholine receptor; alpha4/beta2 (Homo sapiens); assay: as §1, with “5-[(2R)-azetidin-2-ylmethoxy]-2-chloropyridine-induced” for “(3R)-1-pyridin-3-ylpyrrolidin-3-amine-induced”; format: cell-based
Rattus norvegicus [16] = assay: Potentiation of 5-[(2R)-Azetidin-2-yl methoxy]-2-chloropyridine-induced antinociceptive activity in ip dosed Sprague-Dawley rat assessed as reversal of tight ligation of L5-L6 spinal nerves-mediated mechanical allodynia by measuring paw withdrawal threshold administered prior to agonist treatment measured after 30 mins; format: functional

Structure (SMILES): Cc1ccc(-c2noc(-c3cccc(C#N)c3)n2)cn1
- Activity [1]: 150 to 200%
- Activity [2]: 150 to 200%

Structure (SMILES): c1cc(-c2noc(-c3cccnc3)n2)cc(-c2nnn[nH]2)c1
- Activity [1]: 90 to 120%
- Activity [2]: 90 to 120%

Structure (SMILES): c1cncc(-c2noc(-c3cccnc3)n2)c1
- Activity [1]: 200 to 400%
- Activity [2]: 200 to 400%

Structure (SMILES): Fc1cccc(-c2nc(-c3cccnc3)no2)c1F
- Activity [1]: 200 to 400%
- Activity [2]: 200 to 400%

Structure (SMILES): Clc1cc(-c2noc(-c3cccnc3)n2)ccn1
- Activity [1]: 120 to 150%
- Activity [2]: 120 to 150%

Structure (SMILES): O=c1ccc(-c2noc(-c3cccnc3)n2)c[nH]1
- Activity [1]: 120 to 150%
- Activity [2]: 120 to 150%

Structure (SMILES): N#Cc1ccc(-c2nc(-c3cccnc3)no2)cc1
- Activity [1]: 150 to 200%
- Activity [2]: 150 to 200%

Structure (SMILES): O=[N+]([O-])c1cccc(-c2nc(-c3cccnc3)no2)c1
- Activity [1]: 200 to 400%
- Activity [2]: 200 to 400%

Structure (SMILES): N#Cc1cccc(-c2noc(-c3ccc(Cl)nc3)n2)c1
- Activity [1]: 150 to 200%
- Activity [2]: 150 to 200%

Structure (SMILES): N#Cc1cccc(-c2noc(-c3cccnc3)n2)c1
- Activity [1]: 200 to 400%
- Activity [2]: 200 to 400%

Structure (SMILES): Oc1cncc(-c2nc(-c3cccnc3)no2)c1
- Activity [1]: 90 to 120%
- Activity [2]: 90 to 120%

Structure (SMILES): NCC1(CC(=O)O)CCCCC1 [GABAPENTIN]
- Activity (Rattus norvegicus [3]): 58%

Structure (SMILES): Brc1cncc(-c2nc(-c3cccnc3)no2)c1
- Activity [1]: 120 to 150%
- Activity [2]: 120 to 150%

Structure (SMILES): CS(=O)(=O)c1cccc(-c2nc(-c3cccnc3)no2)c1
- Activity [1]: 120 to 150%
- Activity [2]: 120 to 150%

Structure (SMILES): N#Cc1cccc(-c2nc(-c3cccnc3)no2)c1
- Activity [4]: Active
- Activity [5]: Active
- Activity [6]: 200 to 400%
- fold change (FC) [6]: 10 to 100
- Activity (Rattus norvegicus [7]): Active
- Activity [8]: Active
- Activity [9]: Active
- Activity (Rattus norvegicus [10]): 56%
- Activity [11]: Non-Toxic
- Activity (Rattus norvegicus [12]): 76%
- Activity [13]: Non-Toxic
- Activity (Rattus norvegicus [14]): 41%
- Activity [15]: 200 to 400%
- fold change (FC) [15]: 10 to 100
- Activity (Rattus norvegicus [16]): Dose-dependent effect
- Activity (Rattus norvegicus [16]; record 2): 33 - 63%

Structure (SMILES): NS(=O)(=O)c1cccc(-c2nc(-c3cccnc3)no2)c1
- Activity [1]: 200 to 400%
- Activity [2]: 200 to 400%

Structure (SMILES): CC(=O)c1cccc(-c2nc(-c3cccnc3)no2)c1
- Activity [1]: 150 to 200%
- Activity [2]: 150 to 200%

Structure (SMILES): N#Cc1cccc(-c2noc(-c3ccc(F)nc3)n2)c1
- Activity [1]: 150 to 200%
- Activity [2]: 150 to 200%

Structure (SMILES): Fc1ccc(-c2nc(-c3cccnc3)no2)cc1F
- Activity [1]: 200 to 400%
- Activity [2]: 200 to 400%

Reference: ChEMBL document CHEMBL3880409, “Pharmaceutical compositions and their methods of use” (2008)
